Data: the supplement of paper PMC10307832

Columns and labels:
Assay in all cases: relative viability (nuclei count vs DMSO), 5 days (fraction); higher = more cells survive
Dabrafenib + OSI-027 = compound: CC(C)(C)c1nc(-c2cccc(NS(=O)(=O)c3c(F)cccc3F)c2F)c(-c2ccnc(N)n2)s1 [Dabrafenib] + COc1cccc2cc(-c3nc([C@H]4CC[C@H](C(=O)O)CC4)n4ncnc(N)c34)[nH]c12 [OSI-027] (partner 0.5 µM)
Method in brief: (§1)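 For relative viability, nuclei counts in treated wells were divided by those in vehicle wells. Lung cancer cell lines had been pin-tool dosed in 1536-well plates the day after seeding and cultured for 5 days, then fixed and stained in one step (final 0.05% Triton X-100, 1% formaldehyde, 1 ug/ml Hoechst) and imaged at 4×. Doses were one drug alone or a fixed anchor-drug dose plus five library-drug doses (not always all listed) in √10 steps, and values are duplicate-plate medians.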

Dabrafenib + Pictilisib = compound: CC(C)(C)c1nc(-c2cccc(NS(=O)(=O)c3c(F)cccc3F)c2F)c(-c2ccnc(N)n2)s1 [Dabrafenib] + CS(=O)(=O)N1CCN(Cc2cc3nc(-c4cccc5[nH]ncc45)nc(N4CCOCC4)c3s2)CC1 [Pictilisib] (partner 1 µM)
Method in brief: as §1

VX-702 + Lapatinib = compound: NC(=O)c1ccc(N(C(N)=O)c2c(F)cccc2F)nc1-c1ccc(F)cc1F [VX-702] + CS(=O)(=O)CCNCc1ccc(-c2ccc3ncnc(Nc4ccc(OCc5cccc(F)c5)c(Cl)c4)c3c2)o1 [Lapatinib] (partner 2 µM)
Method in brief: as §1

VX-702 + Dasatinib = compound: NC(=O)c1ccc(N(C(N)=O)c2c(F)cccc2F)nc1-c1ccc(F)cc1F [VX-702] + Cc1nc(Nc2ncc(C(=O)Nc3c(C)cccc3Cl)s2)cc(N2CCN(CCO)CC2)n1 [Dasatinib] (partner 0.075 µM)
Method in brief: as §1

| Cell Line | relative viability (Dabrafenib + OSI-027; first compound 0.003 µM) | relative viability (Dabrafenib + OSI-027; first compound 0.009487 µM) | relative viability (Dabrafenib + OSI-027; first compound 0.03 µM) | relative viability (Dabrafenib + OSI-027; first compound 0.09487 µM) | relative viability (Dabrafenib + OSI-027; first compound 0.3 µM) | relative viability (Dabrafenib + Pictilisib; first compound 0.009487 µM) | relative viability (Dabrafenib + Pictilisib; first compound 0.09487 µM) | relative viability (Dabrafenib + Pictilisib; first compound 0.3 µM) | relative viability (VX-702 + Lapatinib; first compound 0.02 µM) | relative viability (VX-702 + Lapatinib; first compound 0.2 µM) | relative viability (VX-702 + Lapatinib; first compound 0.6325 µM) | relative viability (VX-702 + Lapatinib; first compound 2 µM) | relative viability (VX-702 + Dasatinib; first compound 0.02 µM) | relative viability (VX-702 + Dasatinib; first compound 0.2 µM) | relative viability (VX-702 + Dasatinib; first compound 0.6325 µM) | relative viability (VX-702 + Dasatinib; first compound 2 µM) | relative viability (Dabrafenib + Pictilisib; first compound 0.03 µM) | relative viability (Dabrafenib + Pictilisib; first compound 0.003 µM) |
| --- | --- | --- | --- | --- | --- | --- | --- | --- | --- | --- | --- | --- | --- | --- | --- | --- | --- | --- |
| NCI-H647 | 0.325 | 0.704 | 0.561 | 0.582 | 0.476 | 0.347 | 0.531 | 0.388 | 1.15 | 0.935 | 1.24 | 1.25 | 0.151 | 0.171 | 0.211 | 0.246 | – | – |
| NCI-H650 | – | 0.578 | 0.427 | 0.331 | 0.301 | 0.977 | 0.688 | 0.661 | 0.876 | – | 0.43 | 1.16 | 0.481 | – | 0.534 | 0.533 | 0.878 | – |
| NCI-H661 | 0.785 | 0.709 | 0.676 | 0.682 | 0.675 | 0.376 | 0.34 | 0.48 | 0.498 | 0.445 | 0.505 | 0.624 | 0.841 | 0.811 | 0.995 | 1.06 | – | 0.283 |
| NCI-H727 | – | 0.395 | 0.677 | 0.568 | 0.643 | 0.476 | 0.444 | 0.401 | 0.88 | 0.671 | 0.818 | 0.911 | 0.372 | 0.359 | 0.295 | 0.396 | 0.36 | – |
| NCI-H838 | 0.339 | 0.483 | 0.388 | 0.405 | 0.412 | 0.563 | 0.447 | 0.385 | 1.06 | 1.01 | 1.13 | 1.35 | 0.348 | 0.285 | 0.304 | 0.339 | 0.421 | 0.394 |
| NCI-H1355 | – | 0.477 | 0.34 | 0.416 | 0.44 | 0.493 | – | 0.362 | 1.09 | 0.984 | 0.998 | 1.28 | 0.883 | 0.679 | 0.683 | 0.818 | 0.328 | – |
| NCI-H1395 | 0.377 | 0.692 | 0.594 | 0.583 | 0.589 | 0.652 | 0.542 | 0.567 | 0.898 | 1.16 | 1.09 | 1.17 | 0.414 | 0.413 | 0.415 | 0.447 | 0.673 | – |
| NCI-H1437 | 0.926 | 0.849 | 1.04 | 0.922 | 0.878 | 0.478 | 0.46 | 0.702 | 0.779 | 0.753 | 0.972 | 0.959 | 0.407 | 0.34 | 0.439 | 0.467 | 0.481 | 0.385 |
| NCI-H1563 | 0.732 | 0.742 | 0.675 | 0.791 | 0.676 | 0.628 | 0.633 | 0.583 | 0.939 | 0.991 | 1.02 | 0.691 | 0.395 | 0.445 | 0.416 | 0.451 | 0.6 | 0.591 |
| NCI-H1650 | 0.318 | 0.899 | 0.374 | 0.803 | 0.948 | 0.841 | 0.647 | 0.814 | 0.808 | 0.469 | 0.818 | 0.907 | 0.385 | 0.346 | 0.334 | 0.265 | 0.404 | 0.401 |
| NCI-H1651 | 0.724 | 0.666 | 0.748 | 0.714 | 0.736 | 0.58 | 0.554 | 0.596 | 1.04 | 0.929 | 0.847 | 0.963 | 0.395 | 0.456 | 0.359 | 0.544 | 0.559 | 0.534 |
| NCI-H1666 | 0.805 | 0.869 | 0.833 | 0.797 | 0.968 | – | 0.387 | 0.448 | 0.828 | 0.583 | 0.711 | 0.438 | 0.765 | – | 0.876 | 0.641 | 0.474 | 0.473 |
| NCI-H1734 | – | 0.655 | 0.471 | 0.496 | 0.502 | 0.522 | 0.424 | 0.399 | 0.541 | 0.961 | 1.05 | 0.917 | 0.51 | 0.413 | 0.445 | 0.371 | 0.38 | – |
| NCI-H1755 | 0.668 | 0.672 | 0.591 | 0.661 | 0.701 | 0.414 | 0.418 | 0.342 | 1.08 | 1.02 | 1.09 | 1.09 | 0.44 | 0.432 | 0.367 | 0.415 | 0.237 | 0.444 |
| NCI-H1792 | – | 0.749 | 0.618 | 0.737 | 0.753 | 0.307 | 0.311 | 0.242 | 0.965 | 0.811 | 0.97 | 1.08 | 0.556 | 0.781 | 0.714 | 0.714 | 0.237 | – |
| NCI-H1793 | – | 0.393 | – | – | 0.309 | 0.313 | 0.392 | 0.323 | 0.752 | 0.59 | 0.817 | 0.987 | 0.412 | 0.392 | 0.382 | 0.366 | 0.329 | 0.366 |
| NCI-H1915 | 0.572 | 0.565 | 0.486 | 0.37 | 0.381 | 1.06 | 0.758 | 0.578 | 1.05 | 1 | 1 | 1.07 | 0.328 | 0.282 | 0.281 | 0.327 | 0.862 | 0.902 |
| NCI-H1944 | 0.356 | 0.433 | 0.39 | 0.505 | 0.439 | 0.343 | 0.438 | 0.368 | 0.903 | 0.774 | 0.878 | 0.789 | 0.226 | 0.212 | 0.221 | 0.169 | 0.284 | 0.36 |
| NCI-H1975 | 0.657 | 0.728 | 0.805 | 0.535 | 0.581 | 0.308 | 0.257 | 0.234 | 0.925 | 1.03 | 0.961 | 1.22 | 0.365 | 0.344 | 0.402 | 0.382 | 0.27 | 0.267 |
